Measured values reported in patent publication US4454291A, “N-(2-Substituted-1-oxoalkyl)-2,3-dihydro-1H-indole-2-carboxylic acid derivatives” (American Home Products Corporation, priority 1982, dated 1984).
Where a name gives a salt, the structure may show the parent alone. Square brackets hold non-standard residues; d marks the D form. Ends that are not written are not given here. pGlu = O=C1CC[C@@H](C(=O)O)N1

Columns and labels:
hypertension [1] = details: cited from earlier work
[2] = system: angiotensin converting enzyme; details: cited from earlier work
hypertension [3] = details: humans with certain forms of hypertension; cited from earlier work
[4] = target: T1, angiotensin converting enzyme (Oryctolagus cuniculus, UniProt P12822); experiment: In vitro assay for angiotensin converting enzyme inhibition utilizing rabbit lung extract (Cushman et al.), hippuryl-L-histidyl-L-leucine substrate; assay type: biochemical
T1 construct: utilizing the rabbit lung extract; from tissue; host or cells: rabbit lung extract
T1 sequence (P12822 34-1310): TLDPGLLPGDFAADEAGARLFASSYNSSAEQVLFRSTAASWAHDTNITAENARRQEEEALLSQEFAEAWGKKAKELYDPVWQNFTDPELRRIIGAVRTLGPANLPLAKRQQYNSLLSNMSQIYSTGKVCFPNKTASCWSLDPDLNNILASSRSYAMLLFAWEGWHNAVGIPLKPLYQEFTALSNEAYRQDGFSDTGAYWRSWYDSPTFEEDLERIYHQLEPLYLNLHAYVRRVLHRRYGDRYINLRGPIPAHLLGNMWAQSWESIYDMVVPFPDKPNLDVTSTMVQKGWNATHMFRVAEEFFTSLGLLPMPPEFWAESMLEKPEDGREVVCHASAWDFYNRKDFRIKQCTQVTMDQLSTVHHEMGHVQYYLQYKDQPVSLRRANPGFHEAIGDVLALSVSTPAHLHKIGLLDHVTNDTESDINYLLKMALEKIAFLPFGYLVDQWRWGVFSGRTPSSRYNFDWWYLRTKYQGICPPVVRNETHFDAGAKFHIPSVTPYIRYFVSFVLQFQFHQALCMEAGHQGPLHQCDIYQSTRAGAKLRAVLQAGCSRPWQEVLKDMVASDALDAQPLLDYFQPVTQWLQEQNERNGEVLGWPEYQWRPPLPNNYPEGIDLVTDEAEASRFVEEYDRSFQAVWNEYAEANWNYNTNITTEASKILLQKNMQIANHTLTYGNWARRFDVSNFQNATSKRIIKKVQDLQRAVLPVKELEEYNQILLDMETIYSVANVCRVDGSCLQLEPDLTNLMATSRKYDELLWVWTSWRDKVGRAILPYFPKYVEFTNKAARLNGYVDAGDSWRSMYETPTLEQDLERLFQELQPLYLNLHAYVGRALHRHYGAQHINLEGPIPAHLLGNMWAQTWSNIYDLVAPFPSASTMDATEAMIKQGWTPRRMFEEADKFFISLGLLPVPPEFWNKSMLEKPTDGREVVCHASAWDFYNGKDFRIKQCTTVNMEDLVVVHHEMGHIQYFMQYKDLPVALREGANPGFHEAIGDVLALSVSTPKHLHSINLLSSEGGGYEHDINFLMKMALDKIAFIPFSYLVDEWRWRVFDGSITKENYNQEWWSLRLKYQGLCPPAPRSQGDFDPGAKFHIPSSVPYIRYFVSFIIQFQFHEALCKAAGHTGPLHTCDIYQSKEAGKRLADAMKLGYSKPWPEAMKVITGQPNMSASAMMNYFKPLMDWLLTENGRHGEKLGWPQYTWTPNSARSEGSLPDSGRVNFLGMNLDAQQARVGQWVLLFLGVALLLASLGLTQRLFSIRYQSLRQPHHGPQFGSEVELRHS
Description: The angiotensin converting enzyme (ACE) inhibitory property of the compounds is measured in vitro and in vivo. The in vitro assay utilizes rabbit lung extract and a specific tripeptide substrate, hippuryl-L-histidyl-L-leucine being preferred, and follows the method of Cushman et al., Biochem. Pharmacol., 20, 1637-1648 (1971).
In the in vitro assay for angiotensin converting enzyme inhibition utilizing the rabbit lung extract according to the procedure of Cushman et al., Biochem. Pharmacol., 20, 1637-1648 (1971), the following results were obtained: […]

[5] = system: spontaneously hypertensive rat; experiment: Anti-hypertensive effect in the spontaneously hypertensive rat (systolic pressure, indirect caudal plethysmograph); assay type: in vivo, male); details: oral, 4 subjects
Description: The anti-hypertensive effect of the compounds of the invention is measured in the spontaneously hypertensive rat. In this procedure systolic pressure of male spontaneously hypertensive rats is measured by an indirect technique using the Decker Caudal Plethysmograph or other appropriate sensor. Groups usually consist of 4 or more rats. Drugs are usually administered orally. Pressures are usually read prior to drug administration and at 1.5, 4 and 24 hours thereafter. This schedule may be altered depending upon the behavior of the drug.
This procedure measures the hypotensive effect of the subject compounds in a hypertensive subject using a single dose and measuring the response over a 24 hour period. When administered orally according to this procedure, compounds of the invention produced a significant decrease in blood pressures in doses of 1-50 mg/kg. When used to treat hypertension in warm-blooded animals doses of less than 15 mg/kg./day would be utilized, and preferably doses of less than 5 mg/kg./day. Such effective treatment doses would generally be administered in long-term antihypertensive therapy.

[6] = system: vasopressor action of Angiotensin I; experiment: In vivo ACE inhibitory activity in the conscious normotensive rat: angiotensin I vasopressor response (Rubin et al.); parameters: species or system rat (Sprague-Dawley, male; details: oral, 1 mg/kg, 2 hours after administration
Description: The in vivo ACE inhibitory activity of the compounds is measured according to the procedure described in Rubin et al., J. Pharmacol. Exp. Ther., 204, 271-280 (1978), which utilizes the conscious normotensive tat as a subject. In this procedure, the jugular vein and carotid artery cannulae are placed in an etheranesthetized, normotensive, male, Sprague-Dawley rat for injection or oral dosage of compounds and direct recording of systemic arterial pressure, respectively. The blood pressure responses to I. V. injections of angiotensin I (500 ng/kg.), angiotensin II (100 ng/kg.) and bradykinin (10 μg/kg.) are recorded and compared with identical doses administered at various time intervals after oral dosing of a prospective angiotensin converting enzyme inhibitor. An angiotensin converting enzyme inhibitor would not be expected necessarily to lower arterial pressure in the normotensive rat, but would be expected to block angiotensin I pressor responses without grossly altering angiotensin II responses. Additionally,the vasodepressor response to bradykinin would be expected to be augmented since angiotensin converting enzyme is known to inactivate bradykinin normally.

IC50 [4] [nM]	Compound	oral activity as an anti-hypertensive agent (hypertension [1])	potency as inhibitors of angiotensin converting enzyme [2]	further results
–	C[C@H](CS)C(=O)N1CCCC1C(=O)O (stereo in doubt) [D-3-mercapto-2methylpropanoyl-L-proline]	effective when administered orally	–	effectiveness among the proline derivatives (hypertension [1]; in vivo): most effective
–	Pyr-Lys-Trp-Ala-Pro ([pGlu]KWAP) [BPP5a]	–	most potent	–
–	Pyr-Trp-Pro-Arg-Pro-Gln-Ile-Pro-Pro (WPRPQIPP; N-terminal pyroglutamate; printed: Trp-Pro-Arg-Pro-Gln-Ile-Pro-Pro) [BPP9a]	not orally active	most potent	anti-hypertensive effect in clinical studies (hypertension [3]): effective anti-hypertensive agent
900	CCOC(=O)[C@@H](CCc1ccccc1)N[C@@H](C)C(=O)N1c2ccccc2C[C@H]1C(=O)O [Example 56, (-)-(S)-1-[(2S)-2-[[(1R)-1-(Ethoxycarbonyl)-3-Phenylpropyl]Amino]-1-Oxopropyl]-2,3-Dihydro-1H-Indole-2-Carboxylic Acid, Maleate]	–	–	–
3100	C[C@H](N)C(=O)N1c2ccccc2C[C@H]1C(=O)O [Example 54, (S)-1-[(S)-2-Amino-Oxopropyl]-2,3-Dihydro-1H-Indole-2-Carboxylic Acid]	–	–	–
118	CCOC(=O)[C@H](CCc1ccccc1)N[C@@H](C)C(=O)N1c2ccccc2C[C@H]1C(=O)O.O=C(O)/C=C\C(=O)O [Example 55, (-)-(S)-1-[(2S)-2-[[(1S)-1-(Ethoxycarbonyl)-3-Phenylpropyl]Amino]-1-Oxopropyl]-2,3-Dihydro-1H-Indole-2-Carboxylic Acid, Maleate]	–	–	Reduction of Systolic BP ([5]; 2.5 mg/kg): -13 mm. Hg.; Reduction of Systolic BP ([5]; 5.0 mg/kg): -23 mm. Hg.; Reduction of Systolic BP ([5]; 10.0 mg/kg): -33 mm. Hg.; inhibition of the vasopressor action of Angiotensin I [6]: 46%
